# Test results reported in patent US20220162188A1, “ISOPRENOIDS AND METHODS OF MAKING THEREOF” (NORTH CAROLINA STATE UNIVERSITY, priority 2019, published 2022).
# “Also recorded” adds a separate entry of the source.
# Columns and labels:
# [1] = target: IspA S81F (Escherichia coli, UniProt P22939, S80F); assay type: biochemical; conditions: DMAPP as starter unit
# [2] = target: IspA Y80D (Escherichia coli, UniProt P22939, Y79D); assay type: biochemical; conditions: DMAPP as starter unit
# [3] = target: T1, isopentenyl phosphate kinase (IPK) (Thermoplasma acidophilum, UniProt Q9HLX1); experiment: NADH-coupled kinetic assay of IPK; conditions: IPK with monophosphorylated substrate, ± SD of the mean
# T1 sequence (Q9HLX1 1-245): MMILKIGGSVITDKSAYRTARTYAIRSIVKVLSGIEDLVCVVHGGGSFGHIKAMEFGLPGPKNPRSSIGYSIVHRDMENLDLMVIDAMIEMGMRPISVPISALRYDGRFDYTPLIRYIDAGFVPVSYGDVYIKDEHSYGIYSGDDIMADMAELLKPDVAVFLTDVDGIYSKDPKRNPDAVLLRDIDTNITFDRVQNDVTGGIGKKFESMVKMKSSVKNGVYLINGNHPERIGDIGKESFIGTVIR
# Procedure: The data was fitted to the Michaelis-Menten equation using SigmaPlot, and the kinetic parameters (kcat, Km, kcat/Km) extracted.
# NADH-Coupled Kinetic Assays. NADH coupled assays were performed with purified enzymes. Reaction progress was monitored by absorbance at 340 nm at 30° C. in a 96-well plate using a Biotek Synergy 4 plate reader (Winooski, Vt.). 200 μL enzymatic mixtures contained 50 mM Tris (pH 8.0), 25 mM KCl, 2.5 mM MgCl2, 0.05 mM DTT, 1 mM ATP, 320 μM NADH, 400 μM phosphoenolpyruvate, 0.5 U pyruvate kinase, 0.7 U lactate dehydrogenase, and various amounts of substrate. Conditions were verified by doubling enzyme and verifying the initial rate was doubled as well.
# Kinetics of IPK were done with purified enzyme using 0.09 μg of enzyme per well. Serial dilution was used to generate specific concentrations of substrates (3125, 1562, 781, 625, 391, 195, 98, 24, 12, and 3 μM). Each condition was performed in triplicate. Nonlinear regression was fitted using SigmaPlot (Systat Software Inc., San Jose, Calif., USA).
# [4] = target: IspA, a farnesyl diphosphate synthase (FPPase) (Escherichia coli, UniProt P22939); conditions: wild-type IspA
# Sequence of IspA, a farnesyl diphosphate synthase (FPPase) (P22939 whole entry): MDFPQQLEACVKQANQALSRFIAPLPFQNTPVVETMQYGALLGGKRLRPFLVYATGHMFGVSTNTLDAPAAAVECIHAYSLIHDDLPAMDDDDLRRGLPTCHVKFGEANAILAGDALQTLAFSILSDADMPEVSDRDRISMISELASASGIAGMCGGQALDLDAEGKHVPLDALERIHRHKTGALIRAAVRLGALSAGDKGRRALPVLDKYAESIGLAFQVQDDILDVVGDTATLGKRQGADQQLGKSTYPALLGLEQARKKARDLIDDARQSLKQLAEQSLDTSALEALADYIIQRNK
# Sequence of IspA Y80D (P22939 whole entry Y79D): as the sequence (P22939 whole entry) above, with Y79D counted along it
# Sequence of IspA S81F (P22939 whole entry S80F): as the sequence (P22939 whole entry) above, with S80F counted along it
smiles,measurement,setting,value
CCC/C=C/COP(=O)(O)O [Substrate 29],"use as extender unit in place of IPP (conversion by LC-MS), words",[1],most efficient analogues
same,"use as extender unit in place of IPP (conversion by LC-MS), words",[2],most efficient analogues
same,kcat,[3],43.0 ± 17.8 s⁻¹
same,Km,"[3]; 1 mM ATP, 30° C.",6.83 ± 3.77 mM
same,"use as extender unit in place of IPP (GPP analogue by LC-MS), words",[4]; DMAPP as starter unit,accepted by IspA; also recorded: most efficient analogues
same,"use as extender unit in place of IPP (FPP analogue by LC-MS), words",[4]; GPP as starter unit,almost as good as that with IPP; also recorded: accepted by IspA
